Test results: patent US8236833B2, “Biphenyl derivatives as modulators of voltage gated ion channels” (Vertex Pharmaceuticals Incorporated, priority 2005, dated 2012)
pIC50: −log10 of the molar value. Read-outs that look alike come from different tables or passages of the source.

What was measured:
[1] = tested on: voltage-gated sodium ion channels; test: Assays for detecting and measuring NaV inhibition properties of compounds (Table 3 activity data; the specific assay and subtype are not stated); format: cell-based
[2] = tested on: neuropathic pain; details: in vivo; cited from earlier work
[3] = target: NaV1.3 (Homo sapiens, UniProt Q9NY46); details: read-out: TTX IC50; cited from earlier work
[4] = target: NaV1.6 (Homo sapiens, UniProt Q9UQD0); details: read-out: TTX IC50; cited from earlier work
NaV1.6, sequence (Q9UQD0 whole entry, looked up): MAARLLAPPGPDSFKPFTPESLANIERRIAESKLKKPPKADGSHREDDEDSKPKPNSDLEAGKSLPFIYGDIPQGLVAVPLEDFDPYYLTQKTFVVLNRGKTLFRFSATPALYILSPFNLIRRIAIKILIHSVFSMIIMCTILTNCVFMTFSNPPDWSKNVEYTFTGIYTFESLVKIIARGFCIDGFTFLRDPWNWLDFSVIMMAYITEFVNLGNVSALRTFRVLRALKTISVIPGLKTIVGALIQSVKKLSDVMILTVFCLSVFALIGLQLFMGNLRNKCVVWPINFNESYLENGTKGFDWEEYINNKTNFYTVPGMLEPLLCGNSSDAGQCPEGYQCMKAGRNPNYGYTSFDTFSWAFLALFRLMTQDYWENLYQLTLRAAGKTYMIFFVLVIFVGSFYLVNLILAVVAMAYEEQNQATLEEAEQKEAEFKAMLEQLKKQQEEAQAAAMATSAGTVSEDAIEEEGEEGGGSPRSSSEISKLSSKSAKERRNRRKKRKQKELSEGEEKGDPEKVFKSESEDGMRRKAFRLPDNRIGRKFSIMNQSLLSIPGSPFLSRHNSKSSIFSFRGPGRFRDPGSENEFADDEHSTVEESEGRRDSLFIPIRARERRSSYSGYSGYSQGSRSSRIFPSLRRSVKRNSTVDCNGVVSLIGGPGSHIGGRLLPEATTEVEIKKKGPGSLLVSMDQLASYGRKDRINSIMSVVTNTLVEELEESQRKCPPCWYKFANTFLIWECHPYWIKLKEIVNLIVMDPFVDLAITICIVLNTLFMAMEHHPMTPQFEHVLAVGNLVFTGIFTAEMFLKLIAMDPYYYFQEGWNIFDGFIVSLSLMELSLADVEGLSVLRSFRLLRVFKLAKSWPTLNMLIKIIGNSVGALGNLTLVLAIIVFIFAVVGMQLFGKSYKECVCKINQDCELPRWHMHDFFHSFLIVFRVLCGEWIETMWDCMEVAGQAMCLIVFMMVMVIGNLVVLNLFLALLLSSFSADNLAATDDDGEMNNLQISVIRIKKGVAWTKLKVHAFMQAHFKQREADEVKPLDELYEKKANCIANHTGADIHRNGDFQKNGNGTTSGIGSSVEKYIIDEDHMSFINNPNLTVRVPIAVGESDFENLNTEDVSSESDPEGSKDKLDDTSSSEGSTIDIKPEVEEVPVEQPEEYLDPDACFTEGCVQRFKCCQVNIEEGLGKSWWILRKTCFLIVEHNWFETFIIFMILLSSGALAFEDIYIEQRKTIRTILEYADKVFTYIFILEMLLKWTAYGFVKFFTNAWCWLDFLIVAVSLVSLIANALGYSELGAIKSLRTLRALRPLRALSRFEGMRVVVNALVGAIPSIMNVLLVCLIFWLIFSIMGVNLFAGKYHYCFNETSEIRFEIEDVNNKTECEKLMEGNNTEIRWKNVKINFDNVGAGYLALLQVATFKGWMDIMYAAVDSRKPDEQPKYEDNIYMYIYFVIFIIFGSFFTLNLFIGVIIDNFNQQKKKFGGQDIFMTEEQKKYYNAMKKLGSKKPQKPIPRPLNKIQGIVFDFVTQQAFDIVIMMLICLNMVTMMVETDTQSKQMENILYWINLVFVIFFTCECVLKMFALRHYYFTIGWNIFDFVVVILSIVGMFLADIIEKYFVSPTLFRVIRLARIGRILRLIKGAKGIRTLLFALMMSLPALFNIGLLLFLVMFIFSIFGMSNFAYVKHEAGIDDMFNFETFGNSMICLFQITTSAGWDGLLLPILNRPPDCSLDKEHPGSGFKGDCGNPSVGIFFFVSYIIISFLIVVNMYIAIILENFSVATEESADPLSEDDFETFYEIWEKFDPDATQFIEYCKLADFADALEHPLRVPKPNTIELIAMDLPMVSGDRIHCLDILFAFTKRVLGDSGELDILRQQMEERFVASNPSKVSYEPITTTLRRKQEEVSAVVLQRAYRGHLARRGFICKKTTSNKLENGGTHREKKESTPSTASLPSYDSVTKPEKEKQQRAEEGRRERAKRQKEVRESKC

[5] = target: NaV1.8 (Homo sapiens, UniProt Q9Y5Y9); details: read-out: TTX IC50; cited from earlier work
[6] = target: NaV1.9 (Homo sapiens, UniProt Q9UI33); details: read-out: TTX IC50; cited from earlier work
NaV1.9, sequence (Q9UI33 whole entry, looked up): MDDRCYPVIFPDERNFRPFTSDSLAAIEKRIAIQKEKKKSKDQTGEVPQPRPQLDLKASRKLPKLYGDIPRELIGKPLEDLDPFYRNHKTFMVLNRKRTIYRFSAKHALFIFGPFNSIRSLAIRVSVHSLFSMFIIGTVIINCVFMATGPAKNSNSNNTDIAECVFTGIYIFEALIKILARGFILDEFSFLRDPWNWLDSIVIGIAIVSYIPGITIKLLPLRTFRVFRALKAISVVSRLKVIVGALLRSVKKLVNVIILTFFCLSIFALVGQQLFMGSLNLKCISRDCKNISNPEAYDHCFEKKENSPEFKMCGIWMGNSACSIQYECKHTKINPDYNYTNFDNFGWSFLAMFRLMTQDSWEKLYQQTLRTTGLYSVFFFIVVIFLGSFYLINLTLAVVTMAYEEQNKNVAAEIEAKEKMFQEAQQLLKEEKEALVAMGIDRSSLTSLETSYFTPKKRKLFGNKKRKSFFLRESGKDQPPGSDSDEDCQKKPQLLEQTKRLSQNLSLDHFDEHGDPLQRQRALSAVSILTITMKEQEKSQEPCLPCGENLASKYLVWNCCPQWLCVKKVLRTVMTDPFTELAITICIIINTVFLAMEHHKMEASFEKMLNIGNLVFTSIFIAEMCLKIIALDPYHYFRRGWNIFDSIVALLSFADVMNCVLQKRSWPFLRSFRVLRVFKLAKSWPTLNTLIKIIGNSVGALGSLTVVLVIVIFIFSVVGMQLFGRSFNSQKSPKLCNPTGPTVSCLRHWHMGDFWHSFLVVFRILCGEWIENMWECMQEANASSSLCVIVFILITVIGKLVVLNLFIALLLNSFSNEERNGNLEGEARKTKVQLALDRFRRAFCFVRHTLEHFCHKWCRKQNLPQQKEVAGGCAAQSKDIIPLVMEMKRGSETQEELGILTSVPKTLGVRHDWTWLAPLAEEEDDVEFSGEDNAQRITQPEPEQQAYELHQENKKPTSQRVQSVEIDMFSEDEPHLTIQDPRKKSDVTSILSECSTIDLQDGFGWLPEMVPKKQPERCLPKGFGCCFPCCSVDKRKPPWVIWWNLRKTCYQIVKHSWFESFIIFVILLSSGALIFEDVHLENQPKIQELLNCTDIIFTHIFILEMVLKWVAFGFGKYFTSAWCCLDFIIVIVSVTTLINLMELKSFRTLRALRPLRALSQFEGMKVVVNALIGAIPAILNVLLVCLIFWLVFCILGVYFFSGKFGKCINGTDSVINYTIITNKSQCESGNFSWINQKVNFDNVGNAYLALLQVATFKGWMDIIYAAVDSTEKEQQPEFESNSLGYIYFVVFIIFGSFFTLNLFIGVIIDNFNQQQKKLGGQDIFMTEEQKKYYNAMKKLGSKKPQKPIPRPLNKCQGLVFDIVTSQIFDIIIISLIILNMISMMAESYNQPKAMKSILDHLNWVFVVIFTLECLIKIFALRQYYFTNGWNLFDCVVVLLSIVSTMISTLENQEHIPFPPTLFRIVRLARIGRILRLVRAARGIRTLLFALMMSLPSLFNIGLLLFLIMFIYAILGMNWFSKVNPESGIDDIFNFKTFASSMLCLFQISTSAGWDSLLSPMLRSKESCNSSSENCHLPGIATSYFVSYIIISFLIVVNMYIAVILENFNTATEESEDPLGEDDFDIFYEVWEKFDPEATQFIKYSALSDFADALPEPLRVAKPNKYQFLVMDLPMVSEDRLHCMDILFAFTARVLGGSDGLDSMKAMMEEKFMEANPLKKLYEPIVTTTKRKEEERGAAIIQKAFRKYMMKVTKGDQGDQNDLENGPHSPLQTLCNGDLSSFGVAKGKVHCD

[7] = target: NaV1.1 (Homo sapiens, UniProt P35498); details: read-out: TTX IC50; cited from earlier work
[8] = activity data for selected compounds, NaV subtype not stated, read-out: IC50

Work on `O=C(COc1ccc(Cl)cc1)Nc1ccc(-c2ccc(S(=O)(=O)Nc3nccs3)cc2)cc1` [Compound 1] yielded a pIC50 [1, 8] of 5.30 to 6.00.
For `COc1cccc(CC(=O)Nc2ccc(-c3ccc(S(=O)(=O)Nc4nccs4)cc3)cc2)c1` [Compound 2], the pIC50 [1] was less than 5.30.
`O=C(COc1ccnc2c(C(F)(F)F)cccc12)Nc1ccc(-c2ccc(S(=O)(=O)Nc3nccs3)cc2)cc1` [Compound 4, N-[4′-(Thiazol-2-ylsulfamoyl)-biphenyl-4-yl]-2-(8-trifluoromethyl-quinolin-4-yloxy)-acetamide] showed a pIC50 [1, 8] of less than 5.30.
Compound `O=C(Nc1ccc(-c2ccc(S(=O)(=O)Nc3nccs3)cc2)cc1)c1ccccc1F` [Compound 3] has a pIC50 [1] of 5.30 to 6.00.
In the case of `NCC1(CC(=O)O)CCCCC1` [Gabapentin], the “share of patients in which it works” value [2] is listed as 60%.
In the case of `C[C@@H](C(=O)Nc1ccc(-c2ccc(S(=O)(=O)Nc3nccs3)cc2)cc1)n1ccc2c(F)cccc21` [Compound 6, (S)-2-(4-Fluoro-indol-1-yl)-N-[4′-(thiazol-2-ylsulfamoyl)-biphenyl-4-yl]-propionamide], the pIC50 [1, 8] was greater than 6.00.
For `NC1=N[C@H](O)[C@H]2[C@H]3O[C@]4(O)O[C@@H]([C@@H](O)[C@@]2(N1)[C@@H]4O)[C@]3(O)CO` [TTX, tetrodotoxin], the pIC50 [3] is given as 7.82, the pIC50 [4] is given as 8.22 and the pIC50 [5] is given as less than 4.30. For the same compound, the pIC50 [6] was 6.00 and the pIC50 [7] was 8.00.
With `O=C(COc1cccc(Cl)c1)Nc1ccc(-c2ccc(S(=O)(=O)Nc3nccs3)cc2)cc1` [Compound 5, 2-(3-Chloro-phenoxy)-N-[4′-(thiazol-2-ylsulfamoyl)-biphenyl-4-yl]-acetamide] the pIC50 [1, 8] was 5.30 to 6.00.
